The target of test [1] is T1, PBP1a from Acinetobacter baumannii (ATCC 19606) (Acinetobacter baumannii, UniProt A0ABX6CK30).
T1 sequence (A0ABX6CK30 1-851): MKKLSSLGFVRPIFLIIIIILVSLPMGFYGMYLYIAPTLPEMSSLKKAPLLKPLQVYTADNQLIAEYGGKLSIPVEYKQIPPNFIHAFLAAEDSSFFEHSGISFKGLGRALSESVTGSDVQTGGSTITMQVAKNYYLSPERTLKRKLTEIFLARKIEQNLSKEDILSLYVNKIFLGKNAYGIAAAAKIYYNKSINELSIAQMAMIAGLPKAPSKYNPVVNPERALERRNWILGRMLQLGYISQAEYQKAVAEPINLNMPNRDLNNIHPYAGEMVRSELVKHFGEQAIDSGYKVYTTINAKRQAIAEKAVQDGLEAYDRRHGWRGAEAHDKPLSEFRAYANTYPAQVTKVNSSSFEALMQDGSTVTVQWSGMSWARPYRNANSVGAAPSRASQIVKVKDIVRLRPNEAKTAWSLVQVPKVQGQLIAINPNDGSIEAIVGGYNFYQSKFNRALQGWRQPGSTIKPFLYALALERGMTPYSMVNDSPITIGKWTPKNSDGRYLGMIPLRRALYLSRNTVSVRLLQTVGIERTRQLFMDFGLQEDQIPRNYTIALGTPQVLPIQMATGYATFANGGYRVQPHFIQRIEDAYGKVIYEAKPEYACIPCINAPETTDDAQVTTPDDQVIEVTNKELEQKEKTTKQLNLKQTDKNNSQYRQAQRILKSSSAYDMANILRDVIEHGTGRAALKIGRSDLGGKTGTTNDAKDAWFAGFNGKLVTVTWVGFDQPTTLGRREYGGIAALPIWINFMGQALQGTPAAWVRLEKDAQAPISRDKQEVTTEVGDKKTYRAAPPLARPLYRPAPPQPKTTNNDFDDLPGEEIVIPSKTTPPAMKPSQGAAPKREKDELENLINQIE
Briefly: Bocillin-FL fluorescence polarization competition binding, A. baumannii PBP1a. The conditions noted are these: fluorescence polarization competition binding assay using Bocillin-FL; read-out: A. baumannii PBP1a Potency. The method, boiled down:
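Purified PBP was preincubated with inhibitor (E. coli PBP3 1.5 μM, 30 min; P. aeruginosa PBP3 0.75 μM, A. baumannii PBP3 0.2 μM and PBP1a 1 μM, 15 min), then Bocillin-FL (0.1 μM; 0.05 μM for PBP1a) added and FP read up to 60 min. EC50 = 50% loss of bound probe.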

Another test concerns B. pseudomallei Bp82. Briefly: microbe, parasite or virus in culture. It counts as cell-based. As to conditions: Burkholderia pseudomallei, BP82, read-out: Minimum inhibitory concentration, B. pseudomallei Bp82.
The test system of another test is P. aeruginosa ATCC 35151. The experiment in a line: microbe, parasite or virus in culture. Format: cell-based. As to conditions: Pseudomonas aeruginosa, ATCC35151, read-out: Minimum inhibitory concentration, P. aeruginosa ATCC 35151.
The next test relates to P. aeruginosa CDC-0054. The experiment in a line: microbe, parasite or virus in culture. Format: cell-based. The conditions noted are these: Pseudomonas aeruginosa, CDC0054, read-out: Minimum inhibitory concentration, P. aeruginosa CDC-0054.
For the next test, the system named is A. baumannii CDC-0036. Briefly: microbe, parasite or virus in culture. The conditions noted are these: Acinetobacter baumannii, CDC0036, read-out: MIC, A. baumannii CDC-0036. Format: cell-based.
In a further test the test system is N. gonorrhoeae WHO Q. Briefly: Liquid broth MIC in Fastidious broth. The conditions noted are these: Neisseria gonorrhoeae, read-out: Minimum Inhibitory Concentration (MIC), N. gonorrhoeae WHO Q.

Values after ≈ are worked out from the molar mass of the structure shown.

Take `O=C(NCCN1CCN(C(=O)NC(C(=O)N[C@H]2Cc3ccc(F)c(C(=O)O)c3OB2O)c2cc(F)c(O)c(O)c2Cl)C(=O)C1=O)c1ccncc1` (stereo partly drawn) [Example 216, (3R)-3-(2-(2-chloro-5-fluoro-3,4-dihydroxyphenyl)-2-(4-(2-(isonicotinamido)ethyl)-2,3-dioxopiperazine-1-carboxamido)acetamido)-7-fluoro-2-hydroxy-3,4-dihydro-2H-benzo[e][1,2]oxaborinine-8-carboxylic acid]: in test [1], the IC50 is greater than 250 µM. Further, the MIC is less than 1 µg/mL in the test with B. pseudomallei Bp82; less than 1 µg/mL with P. aeruginosa ATCC 35151; 8 to 16 µg/mL (≈ 10.9 to 21.9 µM) in the test on P. aeruginosa CDC-0054; 8 to 16 µg/mL (≈ 10.9 to 21.9 µM) in the test with A. baumannii CDC-0036; 16 to 32 µg/mL (≈ 21.9 to 43.8 µM) with N. gonorrhoeae WHO Q.

Regarding `O=C(NCCN1CCN(C(=O)NC(C(=O)N[C@H]2Cc3ccc(F)c(C(=O)O)c3OB2O)c2cc(F)c(O)c(O)c2Cl)C(=O)C1=O)c1cccnc1` (stereo partly drawn) [Example 217, (3R)-3-(2-(2-chloro-5-fluoro-3,4-dihydroxyphenyl)-2-(4-(2-(nicotinamido)ethyl)-2,3-dioxopiperazine-1-carboxamido)acetamido)-7-fluoro-2-hydroxy-3,4-dihydro-2H-benzo[e][1,2]oxaborinine-8-carboxylic acid], the IC50 in test [1] was greater than 250 µM. In addition, the MIC with B. pseudomallei Bp82 is 8 to 16 µg/mL (≈ 10.9 to 21.9 µM); in the test with P. aeruginosa ATCC 35151, less than 1 µg/mL; in the test on P. aeruginosa CDC-0054 it was less than 1 µg/mL; in the test with A. baumannii CDC-0036 it was 8 to 16 µg/mL (≈ 10.9 to 21.9 µM); in the test with N. gonorrhoeae WHO Q, greater than 64 µg/mL.

Consider `O=C(NCCN1CCN(C(=O)N[C@@H](C(=O)N[C@H]2Cc3ccc(F)c(C(=O)O)c3OB2O)c2cc(F)c(O)c(O)c2Cl)C(=O)C1=O)Nc1ccncc1` [Example 221, (R)-3-((R)-2-(2-chloro-5-fluoro-3,4-dihydroxyphenyl)-2-(2,3-dioxo-4-(2-(3-(pyridin-4-yl)ureido)ethyl)piperazine-1-carboxamido)acetamido)-7-fluoro-2-hydroxy-3,4-dihydro-2H-benzo[e][1,2]oxaborinine-8-carboxylic acid], for which the IC50 in test [1] was greater than 250 µM. The MIC with B. pseudomallei Bp82 is less than 1 µg/mL; in the test on P. aeruginosa ATCC 35151, less than 1 µg/mL; in the test with P. aeruginosa CDC-0054 it was 2 to 4 µg/mL (≈ 2.68 to 5.36 µM); with A. baumannii CDC-0036 it was 2 to 4 µg/mL (≈ 2.68 to 5.36 µM); in the test on N. gonorrhoeae WHO Q it was greater than 64 µg/mL.

As to `O=C(NCCN1CCN(C(=O)N[C@@H](C(=O)N[C@H]2Cc3ccc(F)c(C(=O)O)c3OB2O)c2cc(F)c(O)c(O)c2Cl)C(=O)C1=O)Nc1cccnc1` [Example 222, (R)-3-((R)-2-(2-chloro-5-fluoro-3,4-dihydroxyphenyl)-2-(2,3-dioxo-4-(2-(3-(pyridin-3-yl)ureido)ethyl)piperazine-1-carboxamido)acetamido)-7-fluoro-2-hydroxy-3,4-dihydro-2H-benzo[e][1,2]oxaborinine-8-carboxylic acid], the IC50 in test [1] was greater than 250 µM. For the same molecule, the MIC in the test with B. pseudomallei Bp82 is less than 1 µg/mL; in the test with P. aeruginosa ATCC 35151 it was less than 1 µg/mL; with P. aeruginosa CDC-0054, 2 to 4 µg/mL (≈ 2.68 to 5.36 µM); in the test with A. baumannii CDC-0036, 2 to 4 µg/mL (≈ 2.68 to 5.36 µM); with N. gonorrhoeae WHO Q, greater than 64 µg/mL.

For `CN(CCN1CCN(C(=O)NC(C(=O)N[C@H]2Cc3ccc(F)c(C(=O)O)c3OB2O)c2cc(F)c(O)c(O)c2Cl)C(=O)C1=O)S(=O)(=O)c1ccc(C(N)=O)cc1` (stereo partly drawn) [Example 223, (3R)-3-(2-(4-(2-((4-carbamoyl-N-methylphenyl)sulfonamido)ethyl)-2,3-dioxopiperazine-1-carboxamido)-2-(2-chloro-5-fluoro-3,4-dihydroxyphenyl)acetamido)-7-fluoro-2-hydroxy-3,4-dihydro-2H-benzo[e][1,2]oxaborinine-8-carboxylic acid], the IC50 in test [1] is greater than 250 µM. The MIC with B. pseudomallei Bp82 was less than 1 µg/mL; in the test on P. aeruginosa ATCC 35151 it was less than 1 µg/mL; in the test on P. aeruginosa CDC-0054, 2 to 4 µg/mL (≈ 2.43 to 4.86 µM); in the test on A. baumannii CDC-0036, 8 to 16 µg/mL (≈ 9.72 to 19.4 µM); in the test with N. gonorrhoeae WHO Q, greater than 64 µg/mL.

As for `CN(CCN1CCN(C(=O)NC(C(=O)N[C@H]2Cc3ccc(F)c(C(=O)O)c3OB2O)c2cc(F)c(O)c(O)c2Cl)C(=O)C1=O)S(=O)(=O)c1cccc(C(N)=O)c1` (stereo partly drawn) [Example 224, (3R)-3-(2-(4-(2-((3-carbamoyl-N-methylphenyl)sulfonamido)ethyl)-2,3-dioxopiperazine-1-carboxamido)-2-(2-chloro-5-fluoro-3,4-dihydroxyphenyl)acetamido)-7-fluoro-2-hydroxy-3,4-dihydro-2H-benzo[e][1,2]oxaborinine-8-carboxylic acid], the IC50 in test [1] was greater than 250 µM. Besides, the MIC was less than 1 µg/mL in the test on B. pseudomallei Bp82; less than 1 µg/mL in the test with P. aeruginosa ATCC 35151; 2 to 4 µg/mL (≈ 2.43 to 4.86 µM) in the test with P. aeruginosa CDC-0054; 8 to 16 µg/mL (≈ 9.72 to 19.4 µM) with A. baumannii CDC-0036; greater than 64 µg/mL in the test on N. gonorrhoeae WHO Q.

In the case of `CN(CCN1CCN(C(=O)N[C@@H](C(=O)N[C@H]2Cc3ccc(F)c(C(=O)O)c3OB2O)c2cc(F)c(O)c(O)c2Cl)C(=O)C1=O)Cc1cccc(C(N)=O)c1` [Example 225, (R)-3-((R)-2-(4-(2-((3-carbamoylbenzyl)(methyl)amino)ethyl)-2,3-dioxopiperazine-1-carboxamido)-2-(2-chloro-5-fluoro-3,4-dihydroxyphenyl)acetamido)-7-fluoro-2-hydroxy-3,4-dihydro-2H-benzo[e][1,2]oxaborinine-8-carboxylic acid], in test [1], the IC50 was greater than 250 µM. Also, the MIC in the test on B. pseudomallei Bp82 is less than 1 µg/mL; in the test with P. aeruginosa ATCC 35151, less than 1 µg/mL; in the test with P. aeruginosa CDC-0054, 2 to 4 µg/mL (≈ 2.59 to 5.18 µM); with A. baumannii CDC-0036 it was 2 to 4 µg/mL (≈ 2.59 to 5.18 µM); in the test with N. gonorrhoeae WHO Q it was greater than 64 µg/mL.

Turning to `CN(CCN1CCN(C(=O)N[C@@H](C(=O)N[C@H]2Cc3ccc(F)c(C(=O)O)c3OB2O)c2cc(F)c(O)c(O)c2Cl)C(=O)C1=O)Cc1ccc(C(N)=O)cc1` [Example 226, (R)-3-((R)-2-(4-(2-((4-carbamoylbenzyl)(methyl)amino)ethyl)-2,3-dioxopiperazine-1-carboxamido)-2-(2-chloro-5-fluoro-3,4-dihydroxyphenyl)acetamido)-7-fluoro-2-hydroxy-3,4-dihydro-2H-benzo[e][1,2]oxaborinine-8-carboxylic acid], the IC50 in test [1] is greater than 250 µM. Besides, the MIC is less than 1 µg/mL with B. pseudomallei Bp82; less than 1 µg/mL in the test with P. aeruginosa ATCC 35151; 8 to 16 µg/mL (≈ 10.4 to 20.7 µM) with P. aeruginosa CDC-0054; 2 to 4 µg/mL (≈ 2.59 to 5.18 µM) in the test on A. baumannii CDC-0036; greater than 64 µg/mL with N. gonorrhoeae WHO Q.

On to `O=C(NCCCN1CCN(C(=O)NC(C(=O)N[C@H]2Cc3ccc(F)c(C(=O)O)c3OB2O)c2cc(F)c(O)c(O)c2Cl)C(=O)C1=O)Nc1ccc(O)cc1` (stereo partly drawn) [Example 227, (3R)-3-(2-(2-chloro-5-fluoro-3,4-dihydroxyphenyl)-2-(4-(3-(3-(4-hydroxyphenyl)ureido)propyl)-2,3-dioxopiperazine-1-carboxamido)acetamido)-7-fluoro-2-hydroxy-3,4-dihydro-2H-benzo[e][1,2]oxaborinine-8-carboxylic acid], for which the IC50 in test [1] was greater than 250 µM. The MIC in the test with B. pseudomallei Bp82 is less than 1 µg/mL; with P. aeruginosa ATCC 35151, less than 1 µg/mL; in the test with P. aeruginosa CDC-0054, less than 1 µg/mL; in the test with A. baumannii CDC-0036, 2 to 4 µg/mL (≈ 2.58 to 5.16 µM); with N. gonorrhoeae WHO Q, greater than 64 µg/mL.

Turning to `O=C(NCCCN1CCN(C(=O)NC(C(=O)N[C@H]2Cc3ccc(F)c(C(=O)O)c3OB2O)c2cc(F)c(O)c(O)c2Cl)C(=O)C1=O)Nc1ccncc1` (stereo partly drawn) [Example 228, (3R)-3-(2-(2-chloro-5-fluoro-3,4-dihydroxyphenyl)-2-(2,3-dioxo-4-(3-(3-(pyridin-4-yl)ureido)propyl)piperazine-1-carboxamido)acetamido)-7-fluoro-2-hydroxy-3,4-dihydro-2H-benzo[e][1,2]oxaborinine-8-carboxylic acid], the IC50 in test [1] was greater than 250 µM. Moreover, the MIC in the test on B. pseudomallei Bp82 was less than 1 µg/mL; with P. aeruginosa ATCC 35151 it was less than 1 µg/mL; in the test on P. aeruginosa CDC-0054, less than 1 µg/mL; in the test on A. baumannii CDC-0036, 2 to 4 µg/mL (≈ 2.63 to 5.26 µM); in the test with N. gonorrhoeae WHO Q, greater than 64 µg/mL.
